In brackets after ≈: the same amount, converted by molar mass. Entries after “also recorded” stand apart in the source; their conditions may differ. Like-named read-outs stand apart in the source and are kept apart here.
Tests used:
[1] = In vitro metabolic profile in rat-liver microsomes; format: in vitro ADME; details: for metabolites identified in sample C: active rat-liver microsomes and regenerating system, HPLC-HRMS
Method: SyGMa (systematic generation of potential metabolites) software, a tool that lists predicted metabolites with associated empirical probability scores, was used to identify putative metabolites, which were then investigated by analyzing samples with liquid chromatography coupled to high-resolution mass spectrometry (HPLC–HRMS). […] The full-scan MS data acquired for all of the samples were analyzed to find the m/z values of the predicted molecular structures. In order to exclude interfering signals, the results obtained were compared to blank samples and common background peaks were not considered.
Rat-liver microsomes (Sprague-Dawley, male, Sigma-Aldrich; 20 mg/mL protein concentration) were incubated with the candidate compound solution (5 μM final concentration, with 1% DMSO) and Tris buffer (0.1 M, pH = 7.4). The regenerating system, which slowly generated coenzyme units over the incubation time, leading to a better reproduction of in vivo behavior, was composed of MgCl2 (3.3 mM), NADP^+ (1.3 mM), Glu6P (3.5 mM), and Glu6P dehydrogenase (0.5 U/mL).
The incubation time started with the addition of the microsomes suspension (0.5 mg/mL).
Metabolic reactions were stopped by adding 100 μL of cooled acetonitrile to the 100 μL sample of the incubation mixture. Samples were centrifuged to provoke protein precipitation, and the supernatants were immediately stocked at −80 °C, until analysis, to prevent the potential degradation of unstable products.
The products of in vitro metabolism were identified using a high-resolution mass spectrometer (Q-Exactive Orbitrap, Thermo Scientific) coupled to an HPLC instrument (1200 system Agilent). All analytes were separated on an Ascentis C18 column (150 mm × 2.1 mm, 5 μm particle size) maintained at 35 °C. The elution mixture was composed of solvent A (0.1% formic acid in water for positive ionization mode and 0.05% acetic acid for negative ionization mode) and solvent B (acetonitrile). […] MS2-DIA scans were acquired at R = 17 500 and with variable collision energies ranging from 30 to 45, depending on the m/z of the parent ion.

recombinant hDHODH = target: T1, recombinant hDHODH (Homo sapiens, UniProt Q02127); experiment: hDHODH inhibition assay (DCIP reduction); format: biochemical
T1 construct: made in house; host or cells: E. coli BL21DE3 PyrD
Method: BL21DE3 PyrD E. coli cells were transformed using the plasmid construct pFN2A–hDHODH (kindly given by Department of Drug Science and Technology, University of Turin, Turin, Italy). The vector produces hDHODH as an N-terminal GST-fusion protein. Cells were grown at 37 °C in LB medium supplemented with 0.1 mM flavin mononucleotide (Cayman Chemical). […] Triton X-100 was added to the lysate, to a final concentration of 1%, before centrifugation at 14 000g for 40 min at 4 °C. The clarified supernatant was incubated with DNase I for 30 min at room temperature, supplemented with 2 mM dithiothreitol (DTT), and filtered through a 0.45 μm syringe filter as previously described by Sainas et al.[18] The GST-fused enzyme was purified from the bacterial lysate using affinity chromatography on immobilized glutathione-Sepharose columns (GE- […]). The GST tag was not cleaved for further analysis. All the reagents used in the protein expression and purification were supplied by Merck/Sigma-Aldrich if not otherwise specified.
The enzymatic inhibition assay was optimized for being performed on a 96-well plate and to achieve higher throughput. For each well of the plate a total volume of 200 μL was used: 5 μL of purified GST-hDHODH; 60 μL of 2,6-dichloroindophenol (DCIP) 50 μM; 20 μL of coenzyme Q10 enzyme 100 μM; 20 μL of dihydroorotate (DHO) 500 μM; Tris-HCl, pH 8, up to a final volume of 200 μL. Inhibitory activity was assessed by monitoring the reduction of DCIP, which is associated with the oxidation of dihydroorotate as catalyzed by the DHODH enzyme. The enzyme was preincubated for 5 min at 37 °C in Tris-HCl, pH 8, with coenzyme Q10, with DCIP (50 μM), and with the compounds to be tested used at different concentrations (final DMSO concentration 0.1% v/v). The reaction was initiated by the addition of DHO (500 μM), and the absorbance kinetic reduction was monitored at λ = 650 nm using a multiplate reader (Tecan, M1000Pro). In order to assess the minimum and maximum absorbance values of the enzymatic reaction, a Min control value was obtained by measuring the absorbance without DHO. Similarly, a Max value was obtained by measuring the absorbance with DHO but no inhibitor. A blank reduction calculation was also performed by measuring the absorbance values using 180 μL of Tris-HCl and 20 μL of coenzyme Q10. The instrument was set to read the absorbance values every 10 s for a total read time of 10 min at 37 °C. […] Values are the mean ± SE of three independent experiments.

[2] = LogD7.4, shake-flask n-octanol/PBS; details: for logD at 20 min / logD: pH 7.4; for logD: n-octanol/PBS; for LogD^7.4 ± SD: n-octanol/PBS pH 7.4, shake-flask; for Log D7.4 ± SD (supplement CSV): supplementary CSV
Method: The partition coefficients between n-octanol and PBS at pH 7.4 (LogD^7.4) were obtained using the shake-flask technique at room temperature. In the shake-flask experiments, 50 mM phosphate buffered saline, pH 7.4, was used as the aqueous phase. The organic (n-octanol) and aqueous phases were mutually saturated by shaking for 4 h. The compounds were solubilized in the buffered aqueous phase at the highest concentration compatible with solubility, and appropriate amounts of n-octanol were added. The two phases were shaken for about 20 min, by which time the partitioning equilibrium of solutes had been reached, and then centrifuged (10 000 rpm, 10 min). The concentration of the solutes was measured in the aqueous phase using a UV spectrophotometer (Varian Cary 50BIO); absorbance values (recorded for each compound at the wavelength of maximum absorption) were interpolated in calibration curves obtained using standard solutions of the compounds (r^2 > 0.99). Each log D value is an average of at least six measurements.

[3] = Solubility assay at pH 7.4 in PBS; format: physicochemical; details: for solubility in PBS / solubility at 24 h: pH 7.4, 25 °C, 24 h, LOD 6 μM; for solubility at 24 h: phosphate buffered saline
Method: These suspensions were filtered through a PTFE 0.45 μm filter (VWR), and the solutions were chromatographically analyzed using a PerkinElmer ultrahigh performance liquid chromatography (UHPLC) instrument, equipped with a reverse-phase (RP) C18 Phenomenex column (2.1 mm × 100 mm, 1.7 μm particle size). […] The flow rate was 0.5 mL/min. Standard injection volumes were either 2 or 4 μL for poorly soluble compounds. The detection system was a PerkinElmer diode array detector. The wavelengths that were monitored for each compound were defined according to the compound’s own absorption spectrum. Solubility, expressed as μM concentration of the saturated solution, was calculated via interpolation with external calibration curves that were obtained with solutions of each compound in acetonitrile.

THP1 cells [4] = experiment: Fixed-concentration screening of differentiation (CD14) and apoptosis (annexin V) in THP1, with or without uridine; format: cell-based, human
Method: DMSO (dimethyl sulfoxide) acts as the negative control group as it was used to solubilize hDHODH inhibitors. ∗, ∗∗, ∗∗∗ represent the statistical significance for apoptosis (respectively p < 0.05, < 0.01, and <0.001). #, ##, and ### represent the statistical significance for differentiation (respectively p < 0.05, <0.01, and <0.001). The statistical significance is calculated by comparing the compounds to DMSO.
The statistical significance is calculated by comparing the compounds to DMSO.

U937 cells [5] = experiment: Differentiation assay (CD11b expression) in U937; details: EC50 ratio vs brequinar
THP1 cells [6] = experiment: Annexin V apoptosis assay in THP1; details: EC50 ratio vs brequinar
Jurkat cells = experiment: CFSE-based cytotoxic activity assay; details: concentration inducing cytotoxicity ≥30%, 3 days
U937 cells [7] = experiment: Annexin V apoptosis assay in U937; details: EC50 ratio vs brequinar
[8] = mean ± SE of three independent experiments, read-out: hDHODH, IC50 ± SE
[9] = supplementary CSV, values differ from Table 2, read-out: hDHODH IC50 ± SE (supplement CSV)

T1 sequence (Q02127 whole entry): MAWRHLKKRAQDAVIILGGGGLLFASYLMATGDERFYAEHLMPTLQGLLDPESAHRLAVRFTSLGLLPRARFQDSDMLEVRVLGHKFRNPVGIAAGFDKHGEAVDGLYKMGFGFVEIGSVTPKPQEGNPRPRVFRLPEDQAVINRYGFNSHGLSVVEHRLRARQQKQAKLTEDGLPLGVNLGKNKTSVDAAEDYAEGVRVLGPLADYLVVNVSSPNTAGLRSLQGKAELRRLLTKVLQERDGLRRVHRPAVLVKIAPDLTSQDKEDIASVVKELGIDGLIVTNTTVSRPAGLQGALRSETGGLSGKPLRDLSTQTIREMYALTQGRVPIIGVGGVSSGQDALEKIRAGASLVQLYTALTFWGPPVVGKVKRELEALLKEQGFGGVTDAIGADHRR

Row | Compound | IC50 (recombinant hDHODH; [8]) | solubility in PBS [3] | logD [2] | solubility at 24 h [3] | IC50 (recombinant hDHODH; [9]) | also measured
1 | O=C(Nc1c(F)c(F)c(-c2ccccc2)c(F)c1F)c1c(O)nn2ccccc12 [Compound 1] |  |  |  |  |  | metabolites identified in sample C [1]: monohydroxylated, dihydroxylated, and methoxylated metabolites
2 | Cc1cccc2c(C(=O)Nc3c(F)c(F)c(-c4ccccc4)c(F)c3F)c(O)nn12 [Compound 2] | 4.3 ± 0.5 nM |  |  |  |  | 
3 | O=C(Nc1c(F)c(F)c(-c2ccccc2)c(F)c1F)c1c(O)nn2c(Cl)cccc12 [Compound 4, 7-Chloro-2-hydroxy-N-(2,3,5,6-tetrafluoro-[1,1′-biphenyl]-4-yl)pyrazolo[1,5-a]pyridine-3-carboxamide] | 3.4 ± 0.5 nM | <LOD |  |  |  | logD at 20 min [2]: 2.81 ± 0.13
4 | O=C(Nc1c(F)c(F)c(-c2ccccc2)c(F)c1F)c1c(O)nn2c1CCCC2 [Compound 5, 2-Hydroxy-N-(2,3,5,6-tetrafluoro-[1,1′-biphenyl]-4-yl)-4,5,6,7-tetrahydropyrazolo[1,5-a]pyridine-3-carboxamide] | 5.8 ± 0.4 nM | <LOD |  |  |  | logD at 20 min [2]: 2.36 ± 0.02
5 | O=C(Nc1c(F)c(F)c(N2CCOCC2)c(F)c1F)c1c(O)nn2ccccc12 [Compound 6, 2-Hydroxy-N-(2,3,5,6-tetrafluoro-4-morpholinophenyl)pyrazolo[1,5-a]pyridine-3-carboxamide] | 90.9 ± 13.1 nM |  | 0.66 ± 0.08 | 438 µM (≈ 180 µg/mL) |  | activity in cells (differentiation and apoptosis) (THP1 cells [4]; THP1, 1 μM): basically inactive
6 | O=C(Nc1c(F)c(F)c(-c2cccs2)c(F)c1F)c1c(O)nn2ccccc12 [Compound 7, 2-Hydroxy-N-(2,3,5,6-tetrafluoro-4-(thiophen-2-yl)phenyl)pyrazolo[1,5-a]pyridine-3-carboxamide] | 1.35 ± 0.45 nM |  |  |  | 1.37 ± 0.1 nM | 
7 | O=C(Nc1c(F)c(F)c(-c2ccnc(C(F)(F)F)c2)c(F)c1F)c1c(O)nn2ccccc12 [Compound 9, 2-Hydroxy-N-(2,3,5,6-tetrafluoro-4-(2-(trifluoromethyl)pyridin-4-yl)phenyl)pyrazolo[1,5-a]pyridine-3-carboxamide] | 150 ± 15 nM |  | 1.84 ± 0.06 | 20.2 µM (≈ 9.5 µg/mL) |  | activity in cells (differentiation and apoptosis) (THP1 cells [4]; THP1, 1 μM): basically inactive; solubility in PBS relative to 1 [3]: 1.5 times
8 | O=C(Nc1c(F)c(F)c(-c2ccc(F)cc2)c(F)c1F)c1c(O)nn2ccccc12 [Compound 10, 2-Hydroxy-N-(2,3,4′,5,6-pentafluoro-[1,1′-biphenyl]-4-yl)pyrazolo[1,5-a]pyridine-3-carboxamide] | 17.7 ± 3.3 nM | <LOD |  | < 6 µM | 8.32 ± 1.36 nM | LogD^7.4 ± SD [2]: insoluble; Log D7.4 ± SD (supplement CSV) [2]: Insoluble
9 | O=C(Nc1c(F)c(F)c(-c2ccc(C(F)(F)F)cc2)c(F)c1F)c1c(O)nn2ccccc12 [Compound 12, 2-Hydroxy-N-(2,3,5,6-tetrafluoro-4′-(trifluoromethyl)-[1,1′-biphenyl]-4-yl)pyrazolo[1,5-a]pyridine-3-carboxamide] | 71.8 ± 9.42 nM | <LOD |  | < 6 µM | 29.6 ± 3.2 nM | LogD^7.4 ± SD [2]: insoluble; Log D7.4 ± SD (supplement CSV) [2]: Insoluble
10 | O=C(Nc1c(F)c(F)c(-c2cccc(O)c2)c(F)c1F)c1c(O)nn2ccccc12 [Compound 14, 2-Hydroxy-N-(2,3,5,6-tetrafluoro-3′-hydroxy-[1,1′-biphenyl]-4-yl)pyrazolo[1,5-a]pyridine-3-carboxamide] | 2.78 ± 0.32 nM |  | 1.82 ± 0.09 | 55.3 µM (≈ 23.1 µg/mL) | 2 ± 0.67 nM | activity in cells (differentiation and apoptosis) (THP1 cells [4]; THP1, 1 μM): basically inactive; solubility in PBS relative to 1 [3]: around 5 times
11 | CCCOc1cccc(-c2c(F)c(F)c(NC(=O)c3c(O)nn4ccccc34)c(F)c2F)c1 [Compound 17, 2-Hydroxy-N-(2,3,5,6-tetrafluoro-3′-propoxy-[1,1′-biphenyl]-4-yl)pyrazolo[1,5-a]pyridine-3-carboxamide] |  |  | 3.28 ± 0.12 |  |  | efficacy in comparison with brequinar, differentiation U937 (U937 cells [5]): 41 times; activity in cells (differentiation and apoptosis) (THP1 cells [4]; THP1, 0.1 μM): highly active; superiority to brequinar, apoptosis THP1 (THP1 cells [6]): 13 times; metabolites identified in sample C [1]: monohydroxylated and dealkylated metabolites; time after which parent compound was no longer present ([1]; rat-liver microsomes with regenerating system): ≤ 30 min; metabolic stability ([1]; rat-liver microsomes, 2 h): fast metabolism; also recorded: weaker in vitro stability; cytoxicity Jurkat (effect ≥30% ± SD) (Jurkat cells): >100 µM; efficacy in comparison with brequinar, apoptosis U937 (U937 cells [7]): 19 times

Source: publication PMC8279415, “Targeting Acute Myelogenous Leukemia Using Potent Human Dihydroorotate Dehydrogenase Inhibitors Based on the 2-Hydroxypyrazolo[1,5-a]pyridine Scaffold: SAR of the Biphenyl Moiety” (Journal of Medicinal Chemistry, 2021)
